In brackets after ≈: the same amount, converted by molar mass. Activity calls are given as the source filed them. The rule behind the calls is not given here.

Data set [1] can be described thus: Cytotoxicity against human C8166 cells by XTT-formazan method. It is filed as cell-based. As to conditions: read-out: TC50 (the source's name). (In general: Formazan colour is commonly taken as a measure of viable cells.)
The test system of data set [2] is Human immunodeficiency virus 1. In words: Antiviral activity against HIV1 MN infected in human C8166 cells assessed as reduction in Ag gp120 production by ELISA. It is filed as functional, organism-based. The settings on record: Human immunodeficiency virus 1, MN. In general terms: ELISA stands for enzyme-linked immunosorbent assay.
A short description of data set [3]: Selectivity index, ratio of EC50 for HIV1 MN infection in human C8166 cells to TC50 for human C8166 cells. In kind it is functional.
For data set [4], the system named is Human immunodeficiency virus 1. Briefly: Antiviral activity against HIV1 MN infection in human C8166 cells after 2 days by syncitium-forming assay. In kind it is functional, organism-based.
For another data set, the system named is C8166. Briefly: Cytotoxicity against human C8166 cells at 250 ug/ml by XTT-formazan method. In kind it is cell-based.

The EC50 is the midpoint of the concentration-response curve. Take `CC(=O)O[C@H]1[C@H](O)[C@@H](O)[C@H](Oc2ccc(C(=O)/C=C/c3ccc(O)c(O)c3)c(O)c2O)O[C@@H]1COC(=O)/C=C/c1ccc(O)cc1`: the CC50 in data set [1] stood at 100 µg/mL (≈ 157 µM). Moreover, the EC50 in data set [2] is 10 µg/mL (≈ 15.7 µM). The “Selectivity Index” value in data set [3] is on record as >10.
As for `COc1ccc(-c2oc3cc(O[C@@H]4O[C@H](CO[C@@H]5O[C@@H](C)[C@H](O)[C@@H](O)[C@H]5O)[C@@H](O)[C@H](O)[C@H]4O[C@@H]4O[C@H](CO)[C@@H](O)[C@H](O)[C@H]4O)cc(O)c3c(=O)c2OC)cc1O`, the result in data set [4] was inactive.
For `COc1ccc(-c2oc3cc(O[C@@H]4O[C@H](CO[C@@H]5O[C@@H](C)[C@H](O)[C@@H](O)[C@H]5O)[C@@H](O)[C@H](O)[C@H]4O)cc(O)c3c(=O)c2OC)cc1O`, in data set [4], the outcome was inactive.
On the same count and under the same terms, next, `COc1c(-c2ccc(O)c(O)c2)oc2cc(O[C@@H]3O[C@H](CO[C@@H]4O[C@@H](C)[C@H](O)[C@@H](O)[C@H]4O)[C@@H](O)[C@H](O)[C@H]3O)cc(O)c2c1=O`: “inactive”.
With `CC(=O)OC[C@H]1O[C@@H](Oc2ccc(C(=O)/C=C/c3ccc(O)c(O)c3)c(O)c2O)[C@H](O)[C@@H](OC(C)=O)[C@@H]1OC(C)=O`, the Activity entry with C8166 is “Non-toxic”. Besides, the EC50 in data set [2] is 20 µg/mL (≈ 34.7 µM). Moreover, the “Selectivity Index” value in data set [3] came out at 12.5.
Consider `O=C(/C=C/c1ccc(O)cc1)OC[C@H]1O[C@@H](Oc2ccc(C(=O)/C=C/c3ccc(O)cc3)c(O)c2O)[C@H](O)[C@@H](O)[C@@H]1O`, for which, in data set [1], the CC50 was 250 µg/mL (≈ 431 µM). For the same compound, the EC50 in data set [2] was found to be 50 µg/mL (≈ 86.1 µM). In addition, in data set [3], the “Selectivity Index” value is recorded as 12.5.
As to `COc1ccc(-c2oc3cc(O[C@@H]4O[C@H](CO[C@@H]5O[C@@H](C)[C@H](O)[C@@H](O)[C@H]5O[C@@H]5O[C@@H](C)[C@H](O)[C@@H](O)[C@H]5O)[C@@H](O)[C@H](O)[C@H]4O)cc(O)c3c(=O)c2OC)cc1O`, the result in data set [4] was inactive.

The values above are taken from ChEMBL document CHEMBL1145703, “Flavonol and chalcone ester glycosides from Bidens leucantha” (J Nat Prod, 1997).
